This note sets out measurements from patent publication US12331027B2, “Herbicidal pyridylethers” (BASF SE, priority 2017, dated 2025).

Holding throughout (test): greenhouse post-emergence herbicidal test
Assay type in all cases: in vivo

Test [1] deals with AMARE (Amaranthus retroflexus). As to conditions: post-emergence method, application rate 16 g/ha, scale from 0 to 100; for pest or weed control at 16 g/ha: Amaranthus retroflexus, read-out: herbicidal activity against AMARE. The text has this:
(§1) The seeds of the test plants were sown separately for each species. For the post-emergence treatment, the test plants were first grown to a height of 3 to 15 cm, depending on the plant habit, and only then treated with the active ingredients which had been suspended or emulsified in water. For this purpose, the test plants were either sown directly and grown in the same containers, or they were first grown separately as seedlings and transplanted into the test containers a few days prior to treatment. Depending on the species, the plants were kept at 10-25° C. or 20-35° C., respectively. The test period extended over 2 to 4 weeks. During this time, the plants were tended, and their response to the individual treatments was evaluated. Evaluation was carried out using a scale from 0 to 100. 100 means no emergence of the plants, or complete destruction of at least the aerial moieties, and 0 means no damage, or normal course of growth. A good herbicidal activity is given at values of at least 70 and a very good herbicidal activity is given at values of at least 85. [table]

Test [2] has as its system ECHCG (Echinocloa crus-galli). The note with it: post-emergence method, application rate 16 g/ha, scale from 0 to 100.
Description: as §1

Test [3] deals with SETVI (Setaria viridis). As to conditions: scale from 0 to 100; for herbicidal activity against SETVI: post-emergence method, application rate 16 g/ha; for damages SETVI: post emergence control 7 days after treatment (greenhouse).
Description: as §1

The subject of test [4] is CHEAL (Chenopodium album). The note with it: post-emergence method, application rate 16 g/ha, scale from 0 to 100.
Description: as §1

Test [5] concerns POLCO (Polygonum convolvulus). The note with it: post-emergence method, application rate 16 g/ha, scale from 0 to 100.
Description: as §1

Test [6] concerns ALOMY (Alopecurus myosuroides). The note with it: post emergence control 7 days after treatment (greenhouse), scale from 0 to 100.
Description: as §1

Test [7] has as its system AVEFA (Avena fatua). The note with it: post emergence control 7 days after treatment (greenhouse), scale from 0 to 100.
Description: as §1

Molecules are shown by their SMILES.

As for `CCOC(=O)COc1ccccc1Oc1nc(-n2nc(C)n(C(F)F)c2=O)c(F)cc1Cl` [Example 1, Ethyl 2-[2-[[3-chloro-6-[4-(difluoromethyl)-3-methyl-5-oxo-1,2,4-triazol-1-yl]-5-fluoro-2-pyridyl]oxy]phenoxy]acetate], the pest or weed control at 16 g/ha in test [1] was no less than 85%.

Take `CCOC(=O)COc1ccccc1Oc1nc(-n2nc(C(F)(F)F)n(C)c2=O)c(F)cc1C#N` [Example 2, Ethyl 2-[2-[[3-cyano-5-fluoro-6-[4-methyl-5-oxo-3-(trifluoromethyl)-1,2,4-triazol-1-yl]-2-pyridyl]oxy]phenoxy]acetate]: the pest or weed control at 16 g/ha in test [1] is no less than 85%. Besides, in test [2], the “herbicidal activity against ECHCG” value was “very good (a very good herbicidal activity is given at values of at least 85)”. In addition, in test [3], the “herbicidal activity against SETVI” value is listed as “very good (a very good herbicidal activity is given at values of at least 85)”.

`CCOC(=O)COc1ccccc1Oc1nc(-n2nc(C(F)(F)F)n(C)c2=O)c(F)cc1C(N)=S` [Example 3, Ethyl 2-[2-[[3-carbamothioyl-5-fluoro-6-[4-methyl-5-oxo-3-(trifluoromethyl)-1,2,4-triazol-1-yl]-2-pyridyl]oxy]phenoxy]acetate]: the pest or weed control at 16 g/ha in test [1] is no less than 70%.

As to `CCOC(=O)COc1ccccc1Oc1nc(-n2nc3n(c2=O)CCCC3)c(Cl)cc1Cl` [Example 4, Ethyl 2-[2-[[3,5-dichloro-6-(3-oxo-5,6,7,8-tetrahydro-[1,2,4]triazolo[4,3-a]pyridin-2-yl)-2-pyridyl]oxy]phenoxy]acetate], the pest or weed control at 16 g/ha in test [1] is no less than 70%.

Turning to `CCOC(=O)COc1ccccc1Oc1nc(-n2nc(C(C)(C)C)oc2=O)c(Cl)cc1Cl` [Example 5, Ethyl 2-[2-[[6-(5-tert-butyl-2-oxo-1,3,4-oxadiazol-3-yl)-3,5-dichloro-2-pyridyl]oxy]phenoxy]acetate], the pest or weed control at 16 g/ha in test [1] was no less than 85%. For the same compound, in test [4], the “herbicidal activity against CHEAL” value is reported as “very good (a very good herbicidal activity is given at values of at least 85)”.

As for `CCOC(=O)COc1ccccc1Oc1nc(-c2nn(C)c(OC(F)F)c2Cl)c(F)cc1Cl` [Example 6, Ethyl 2-[2-[[3-chloro-6-[4-chloro-5-(difluoromethoxy)-1-methyl-pyrazol-3-yl]-5-fluoro-2-pyridyl]oxy]phenoxy]acetate], in test [1], the pest or weed control at 16 g/ha is no less than 85%.

On to `CCOC(=O)COc1ncccc1Oc1nc(-n2c(=O)n(C)c(=O)n(C)c2=O)c(F)cc1Cl` [Example 7, Ethyl 2-[[3-[[3-chloro-6-(3,5-dimethyl-2,4,6-trioxo-1,3,5-triazinan-1-yl)-5-fluoro-2-pyridyl]oxy]-2-pyridyl]oxy]acetate], for which, in test [1], the pest or weed control at 16 g/ha is no less than 70%.

With `CCOC(=O)COc1ncccc1Oc1nc(-n2ncc(C(F)(F)F)c(C)c2=O)c(F)cc1Cl` [Example 8, Ethyl 2-[[3-[[3-chloro-5-fluoro-6-[5-methyl-6-oxo-4-(trifluoromethyl)pyridazin-1-yl]-2-pyridyl]oxy]-2-pyridyl]oxy]acetate], the pest or weed control at 16 g/ha in test [1] was no less than 85%.

With `CCOC(=O)COc1ccccc1Oc1nc(-n2nc(C)n(C(F)F)c2=O)c(F)cc1F` [Example 9], the “herbicidal activity against CHEAL” value in test [4] is listed as “good (A good herbicidal activity is given at values of at least 70)”. The “herbicidal activity against ECHCG” value in test [2] is “good (A good herbicidal activity is given at values of at least 70)”. Further, the “herbicidal activity against SETVI” value in test [3] is “good (A good herbicidal activity is given at values of at least 70)”.

Regarding `CCOC(=O)COc1ncccc1Oc1nc(-n2nc(C)n(C(F)F)c2=O)c(F)cc1F` [Example 14], in test [3], the “herbicidal activity against SETVI” value is “very good (a very good herbicidal activity is given at values of at least 85)”.

As to `CCOC(=O)COc1ncccc1Oc1nc(-n2nc(C)n(C(F)F)c2=O)ccc1Cl` [Example 16], in test [1], the “herbicidal activity against AMARE” value was “very good (a very good herbicidal activity is given at values of at least 85)”. Also, the “herbicidal activity against CHEAL” value in test [4] is on record as “very good (a very good herbicidal activity is given at values of at least 85)”. Besides, the “herbicidal activity against POLCO” value in test [5] is on record as “very good (a very good herbicidal activity is given at values of at least 85)”.

As to `CCOC(=O)COc1ccccc1Oc1nc(-n2nc(C(F)(F)F)n(C)c2=S)c(F)cc1C#N` [Example 18], the “herbicidal activity against AMARE” value in test [1] is given as “very good (a very good herbicidal activity is given at values of at least 85)”. Also, the “herbicidal activity against SETVI” value in test [3] was “good (A good herbicidal activity is given at values of at least 70)”.

With `CCOC(=O)COc1ccccc1Oc1nc(N2C(=O)OC(=C(C)C)C2=O)c(F)cc1Cl` [Example 26, Ethyl 2-[2-[[3-chloro-5-fluoro-6-(5-isopropylidene-2,4-dioxo-oxazolidin-3-yl)-2-pyridyl]oxy]phenoxy]acetate], in test [1], the pest or weed control at 16 g/ha was no less than 85%. Moreover, the “herbicidal activity against CHEAL” value in test [4] is given as “very good (a very good herbicidal activity is given at values of at least 85)”. Besides, the “herbicidal activity against POLCO” value in test [5] is “very good (a very good herbicidal activity is given at values of at least 85)”. Besides, in test [3], the “herbicidal activity against SETVI” value is reported as “very good (a very good herbicidal activity is given at values of at least 85)”.

In the case of `CCOC(=O)COc1ccccc1Oc1nc(N2C(=O)C3=C(CCCC3)C2=O)c(F)cc1Cl` [Example 27, ethyl 2-[2-[[3-chloro-6-(1,3-dioxo-4,5,6,7-tetrahydroisoindol-2-yl)-5-fluoro-2-pyridyl]oxy]phenoxy]acetate], the pest or weed control at 16 g/ha in test [1] was no less than 85%. The “herbicidal activity against CHEAL” value in test [4] is listed as “very good (a very good herbicidal activity is given at values of at least 85)”. The “herbicidal activity against ECHCG” value in test [2] is listed as “very good (a very good herbicidal activity is given at values of at least 85)”. Further, the “herbicidal activity against POLCO” value in test [5] is given as “very good (a very good herbicidal activity is given at values of at least 85)”. Also, in test [3], the “herbicidal activity against SETVI” value is given as “very good (a very good herbicidal activity is given at values of at least 85)”.

Turning to `COC(=O)COc1ccc(Oc2cc(-n3ncc(C(F)(F)F)c(C)c3=O)c(F)cc2Cl)cc1` [Example A2-11, reference compound], the “damages ALOMY” value in test [6] (application rate 2 g/ha) worked out at 60; in test [6] (application rate 4 g/ha) it was 65. The “damages AVEFA” value in test [7] (application rate 8 g/ha) turned out to be 70; in test [7] (application rate 16 g/ha) it was 80. The “damages SETVI” value was determined as 80 in test [3] (application rate 2 g/ha) and 85 in test [3] (application rate 4 g/ha).

For `COC(=O)COc1ccc(Oc2nc(-n3ncc(C(F)(F)F)c(C)c3=O)c(F)cc2Cl)cc1` [example 28], the “damages ALOMY” value in test [6] (application rate 2 g/ha) came out at 70; in test [6] (application rate 4 g/ha), 75. For the same compound, the “damages AVEFA” value in test [7] (application rate 8 g/ha) was determined as 80; in test [7] (application rate 16 g/ha) it was 98. Besides, the “damages SETVI” value in test [3] (application rate 2 g/ha) turned out to be 90; in test [3] (application rate 4 g/ha), 95.
